Consider 10 molecules from PubChem BioAssay (NCI).

Experiment in all cases: growth of human tumour cells (NCI), 48 h
In test [1] the test system is IGROV1 ovarian.
Test [2] relates to NCI-H522 lung.
The test system of test [3] is COLO 205 colon.
The subject of test [4] is RPMI-8226 leukemia.
Test [5] relates to SF-539 CNS.
The test system of test [6] is OVCAR-3 ovarian.
The test system of test [7] is HCC-2998 colon.
For test [8], the system named is OVCAR-4 ovarian.
Test [9] deals with SF-295 CNS.
The test system of test [10] is RXF 393 renal.

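Following 48 hours of exposure in 96-well plates, responses at five concentrations were used to interpolate endpoints linearly. GI50 = concentration required for 50% inhibition of growth. TGI marks complete inhibition of growth.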

Take `NC(N)=NC(N)=Nc1ccc(S(N)(=O)=O)cc1`: the TGI in test [1], in test [2], in test [3], in [4], in [5] and in test [6] was above 100 µM in each case. In addition, the TGI in test [7], in test [8], in test [9] and in test [10] was above 100 µM each time.
Turning to `CCOc1ccc(N=Cc2ccc3ccccc3n2)cc1`, the TGI in test [1], in [2], in test [3], in test [4], in test [5] and in [6] was above 100 µM throughout. Also, the TGI in test [7], in test [8], in test [9] and in test [10] was above 100 µM throughout.
Consider `CCN(CC)CCC(=O)N1C/C(=C/c2ccccc2)C(=O)/C(=C\c2ccccc2)C1`, for which the TGI in [1] worked out at 9.69 µM; in test [2], 2.29 µM; in [3], 6.74 µM; in test [4], 0.568 µM; in [5], 10.8 µM; in test [6] it was 11 µM. Moreover, the TGI in test [7] was 1.94 µM; in [8], 6.04 µM; in [9], 5.15 µM; in [10], 2.99 µM.
Turning to `CCCCCCC/C=C1\CCC(CN(C)C)C1=O` (stereo not given), the TGI in [1] is 36.3 µM; in test [2], 11.2 µM; in test [3] it was 25.5 µM; in test [4] it was 5.26 µM; in [5], 32.7 µM; in [6], 18 µM. In addition, the TGI is 32.1 µM in [7], 33.6 µM in test [8], 30.1 µM in [9] and 12.1 µM in [10].
With `C=C(C)[C@@H]1CC[C@]2(CN)CC[C@]3(C)[C@H](CC[C@@H]4[C@@]5(C)CCC(N)[C@@](C)(CO)[C@@H]5CC[C@]43C)[C@@H]12` (stereo not given in full), the GI50 was 1.92 µM in test [1]; 1.86 µM in test [2]; 1.75 µM in test [3]; 1.77 µM in test [4]; 1.79 µM in test [5]; 1.96 µM in test [6]. Moreover, the GI50 in test [7] is 1.77 µM; in test [8], 1.64 µM; in [9] it was 1.76 µM; in test [10], 1.28 µM. Besides, the TGI in [1] was found to be 3.65 µM; in test [2] it was 3.5 µM; in [3], 3.38 µM; in [4], 3.94 µM; in [5], 3.26 µM; in [6], 3.57 µM. The TGI in test [7] is 3.24 µM; in [8], 3.26 µM; in test [9], 3.23 µM; in test [10], 2.59 µM.
Turning to `CC(=O)Oc1cc(Cl)c(OC(C)=O)c2c(OC(C)=O)c(C)c(O[Si](C)(C)C(C)(C)C)cc12`, the TGI in test [1] was 12.5 µM; in test [2] it was 19 µM; in test [3], 32.5 µM; in [4], 9.41 µM; in [5] it was 27.7 µM; in test [6], 29.3 µM. Also, the TGI in [7] amounted to 15.5 µM; in [8], 26.2 µM; in test [9] it was 23 µM; in test [10] it was 11.2 µM.
Consider `COc1cc2c(cc1OC)-c1ncc3cc(OC)c(OC)c(OC)c3c1C2`, for which the GI50 in test [1] is 33.5 µM; in test [2], 10.3 µM; in test [3] it was 27.7 µM; in [4], 3.4 µM; in test [5] it was 14 µM; in test [6], 15.9 µM. For the same molecule, the GI50 in test [7] is 26 µM; in [8], 62.6 µM; in test [9] it was 18.8 µM; in [10], 23.2 µM. Further, the TGI in [1] is above 100 µM; in [2], 41.7 µM; in test [3], above 100 µM; in test [4] it was 23.1 µM; in test [5] it was 34 µM; in test [6] it was 43.9 µM. Also, the TGI in test [7] is 95.8 µM; in test [8], above 100 µM; in test [9] it was 53.8 µM; in [10] it was 85.8 µM.
Turning to `Cc1cc(C)c(O)c(CNCCCNCc2cc(C)cc(C)c2O)c1`, the GI50 in test [1] is 4.52 µM; in [2], 3.41 µM; in [3], 1.89 µM; in test [4], 3.03 µM; in test [5] it was 1.59 µM; in test [6], 3.82 µM. For the same molecule, the GI50 was 1.45 µM in test [7], 3.7 µM in [8], 1.87 µM in test [9] and 1.93 µM in test [10]. Moreover, the TGI amounted to 18.5 µM in [1]; 14.1 µM in test [2]; 3.89 µM in test [3]; 8.72 µM in [4]; 3.11 µM in test [5]; 15 µM in test [6]. The TGI in [7] amounted to 2.82 µM; in test [8], 16.1 µM; in test [9], 3.81 µM; in [10], 4.24 µM.
Take `COc1ccc(C[C@H]2NC[C@H](O)[C@H]2OC(C)=O)cc1`: the TGI is 0.153 µM in test [1]; 0.118 µM in test [2]; 0.0256 µM in test [3]; 0.332 µM in test [4]; 0.14 µM in test [5]; 0.335 µM in [6]. The TGI in test [7] was 0.0862 µM; in [8], 0.194 µM; in test [9], 0.0641 µM; in [10], 0.399 µM.
In the case of `CN1CCN(c2ccc(-c3cccc(CN4CCOCC4)c3)cc2NC(=O)c2c[nH]c(=O)cc2C(F)(F)F)CC1`, the GI50 in test [1] is 60.7 µM; in test [2], 16.7 µM; in [3], 17.8 µM; in test [4], 38.2 µM; in test [5], 19.5 µM; in test [6], 31.7 µM. Besides, the GI50 was above 100 µM in [7], 55.9 µM in test [8], 33.1 µM in test [9] and 23.1 µM in test [10]. In addition, the TGI is above 100 µM in test [1]; 39.5 µM in test [2]; above 100 µM in test [3]; above 100 µM in test [4]; 44.7 µM in [5]; above 100 µM in test [6]. Further, the TGI in [7], in test [8], in test [9] and in [10] was above 100 µM throughout.
